Measured values: US20260000655A1, “PHARMACEUTICAL COMPOSITION FOR USE IN PREVENTION OR TREATMENT OF LIFESTYLE-RELATED DISEASE” (priority 2022, published 2026)

What was measured:
[1] = test system: high-fat diet-induced obesity model mice; test: Sirius Red staining and collagen amount in mouse tissue; type: in vivo; conditions: HPH-15 10 mg/kg or 100 mg/kg, metformin 300 mg/kg, orally 28 days, Western blotting
Experimental: High-fat diet-induced obesity model mice were prepared in the same manner as in Example 7. Then, HPH-15 (10 mg/kg or 100 mg/kg, […]) dissolved in olive oil or metformin (300 mg/kg, […]) was orally administered once a day for 28 days. Olive oil alone was administered as a control. After 28 days of administration of each, the liver and the epididymal fat of the high-fat diet-induced obesity model mice were stained with Sirius Red and observed using a microscope.
Further, high-fat diet-induced obesity model mice were prepared in the same manner as in Example 7. Then, HPH-15 (10 mg/kg or 100 mg/kg, […]) dissolved in olive oil or metformin (300 mg/kg, […]) was orally administered once a day for 28 days. Olive oil alone was administered as a control. After 28 days of administration of each, equal amounts (50 mg) of tissue pieces were collected from the liver and epididymal adipose tissues of the high-fat diet-induced obesity model mice, transferred to 1.5 mL Eppendorf tubes, and washed twice with PBS. After washing, the tissue pieces were transferred to BIOMASHER II, […] of RIPA buffer was added, and the tissue pieces were homogenized on ice. After homogenization, the tissue pieces were centrifuged (10,000 rpm, 4° C., 5 min) and the supernatant was obtained as a protein solution. The concentration of the proteins thus obtained was corrected based on the protein concentration measured by the BCA method using bicinchoninic acid (BCA), thereby preparing samples for Western blotting. Western blotting was quantified using ImageJ to calculate the amount of collagen.

[2] = test system: high-fat diet-induced obesity model mice; test: H&E staining of mouse tissue; type: in vivo; conditions: metformin 300 mg/kg orally 28 days; compared to control
Experimental: High-fat diet-induced obesity model mice were prepared in the same manner as in Example 7. Note that the high-fat diet-induced obesity model mice develop liver damage and are thus used as a liver disease model. Then, HPH-15 (10 mg/kg or 100 mg/kg, […]) dissolved in olive oil or metformin (300 mg/kg, […]) was orally administered once a day for 28 days. Olive oil alone was administered as a control. After administration of each for 28 days, the liver, epididymis, and muscle of the high-fat diet-induced obesity model mice were stained with H&E and observed using a microscope. The results of H&E staining of the liver are shown in FIG. 12A, the results of H&E staining of the epididymis are shown in FIG. 12B, and the results of H&E staining of the muscle are shown in FIG. 12C.

## CN(C)C(=N)N=C(N)N [metformin, reference compound]
[1]
  amount of collagen in the epididymal adipose tissue: no collagen-reducing effect was confirmed
  amount of collagen in the liver tissue: no collagen-reducing effect was confirmed
[2]
  fat area (H&E): only slightly reduced the fat area
